Here are results for one compound from PMC6175634 (Molecular genetics and metabolism, 2018).

The target of the assay is T1, sulfamidase (wild-type mouse DBS) (Mus musculus, UniProt Q9EQ08).
T1 sequence (Q9EQ08 23-502): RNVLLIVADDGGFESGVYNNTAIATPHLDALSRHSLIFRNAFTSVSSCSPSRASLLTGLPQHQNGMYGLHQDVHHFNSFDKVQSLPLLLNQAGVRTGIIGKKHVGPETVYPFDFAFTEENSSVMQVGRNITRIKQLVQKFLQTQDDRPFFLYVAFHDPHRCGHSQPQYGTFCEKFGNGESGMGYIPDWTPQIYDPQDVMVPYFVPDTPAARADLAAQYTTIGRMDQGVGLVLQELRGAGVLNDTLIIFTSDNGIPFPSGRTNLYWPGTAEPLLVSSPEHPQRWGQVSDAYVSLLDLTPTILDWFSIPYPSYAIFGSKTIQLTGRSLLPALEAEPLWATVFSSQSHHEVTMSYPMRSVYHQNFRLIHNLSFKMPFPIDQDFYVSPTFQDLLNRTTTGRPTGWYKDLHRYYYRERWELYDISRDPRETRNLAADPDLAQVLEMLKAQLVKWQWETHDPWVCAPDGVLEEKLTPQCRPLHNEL
Description: LC-MS/MS product formation in dried blood spot, knockout mouse control. In kind it is biochemical. The note with it: 1 mM substrate, otherwise same.

For the compound `O=S(=O)(O)N[C@H]1[C@@H](Oc2ccc3ccccc3c2)O[C@H](CO)[C@@H](O)[C@@H]1O` [MPS-IIIA-S, 2-sulfamate-2-deoxy-1-α-(2-naphthyl)-glucopyranoside], the “LC-MS/MS product formation in dried blood spot, knockout mouse control” value is “sulfamidase activity was readily detected in a DBS made using blood from a wild-type mouse”.
